Assay results from US6806230B1, “Pyrimidine derivatives and herbicides containing them” (Kumiai Chemical Industry Co., Ltd., priority 1999, dated 2004).

Tests used:
Format in all cases: in vivo
barnyard grass (Ec) [1] = experiment: Test Example 2: herbicidal effects by upland soil treatment; design: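 0-5 growth inhibition grade; 5 = over 90%; 4 = 70-90%; 3 = 50-70%; 2 = 30-50%; 1 = 10-30%; 0 = under 10%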; conditions: dose 100 g active ingredient per 10 ares, examined on the 21st day after treatment; for herbicidal effects, Ec (barnyard grass): standards of Table 44
How it was run: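 Pre-emergence test: barnyard grass and green foxtail sown in upland soil, then soil surface sprayed with wettable-powder formulation at 100 g active ingredient per 10 ares (100 l per 10 ares). Grown in greenhouse; herbicidal effect scored on a rating scale 21 days after treatment.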

monochoria (Mo) [2] = experiment: Test Example 1: herbicidal effects by flooded paddy field treatment; design: herbicidal effects, Mo (monochoria):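 0-5 growth inhibition grade; 5 = over 90%; 4 = 70-90%; 3 = 50-70%; 2 = 30-50%; 1 = 10-30%; 0 = under 10%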; conditions: for herbicidal effects, Mo (monochoria): dose 100 g active ingredient per 10 ares, examined on the 21st day after treatment, standards of Table 44; for Herbicidal effect index, Mo: dose 100 gai/10a, examined on 21st day after treatment, index 0-5 per Table 44;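 for Herbicidal effect index, Mo: 0-5 growth inhibition grade; 5 = over 90%; 4 = 70-90%; 3 = 50-70%; 2 = 30-50%; 1 = 10-30%; 0 = under 10%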
How it was run: (§1)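 Seeds sown in puddled paddy soil and flooded to 3 cm. Next day, a water-diluted wettable powder was dripped onto the water surface at 100 g active ingredient per 10 ares. Plants were grown in a greenhouse, and herbicidal effect was scored against a rating standard 21 days after treatment.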

barnyard grass (Eo) [3] = experiment: as above; design: herbicidal effects, Eo (barnyard grass):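 0-5 growth inhibition grade; 5 = over 90%; 4 = 70-90%; 3 = 50-70%; 2 = 30-50%; 1 = 10-30%; 0 = under 10%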; conditions: for herbicidal effects, Eo (barnyard grass): dose 100 g active ingredient per 10 ares, examined on the 21st day after treatment, standards of Table 44; for Herbicidal effect index, Eo: dose 100 gai/10a, examined on 21st day after treatment, index 0-5 per Table 44
How it was run: as §1

green foxtail (Se) = experiment: Test Example 2: herbicidal effects by upland soil treatment; conditions: dose 100 g active ingredient per 10 ares, examined on the 21st day after treatment, standards of Table 44;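 note: 0-5 growth inhibition grade; 5 = over 90%; 4 = 70-90%; 3 = 50-70%; 2 = 30-50%; 1 = 10-30%; 0 = under 10%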
Procedure: In a 80 cm^2 plastic pot, upland soil was filled, and seeds of barnyard grass (Ec) and green foxtail (Se) were sown and covered with soil. A wettable powder prepared in accordance with Formulation Example 1 was diluted with water and uniformly applied to the soil surface by means of a small size spray at a rate of 100 l per 10 ares, so that the dose of the active ingredient would be 100 g per 10 ares. Thereafter, cultivation was carried out in a green house, and on the 21st day after the treatment, the herbicidal effects were examined in accordance with the standards as identified in Table 44.

rice (Or) = experiment: Test Example 4: selectivity for a crop plant by flooded paddy field treatment; design: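 0-5 phytotoxicity grade; 5 = over 90%; 4 = 70-90%; 3 = 50-70%; 2 = 30-50%; 1 = 10-30%; 0 = under 10%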; conditions: rice transplanted at second leaf stage, dose 25 gai/10a, 21st day after treatment, index per Table 44
How it was run: (§2)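 Paddled paddy soil in pots sown with barnyard grass and monochoria, with second-leaf-stage rice transplanted, under 3 cm of water. Next day a diluted wettable powder was dripped onto the water at 25 g active ingredient per 10 ares; effects scored on a rating scale 21 days later in a greenhouse.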

barnyard grass (Eo) [4] = experiment: as above; design: scale not given here; conditions: barnyard grass, dose 25 gai/10a, 21st day after treatment, index per Table 44
How it was run: as §2

monochoria (Mo) [5] = experiment: as above; design: scale not given here; conditions: monochoria, dose 25 gai/10a, 21st day after treatment, index per Table 44
How it was run: as §2

barnyard grass (Ec) [6] = experiment: Test Example 3: herbicidal effects by foliage treatment in upland field; design: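 0-5 growth inhibition grade; 5 = over 90%; 4 = 70-90%; 3 = 50-70%; 2 = 30-50%; 1 = 10-30%; 0 = under 10%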; conditions: dose 100 g active ingredient per 10 ares, examined on the 14th day after treatment
How it was run: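 Barnyard grass and green foxtail were grown in upland soil for 2 weeks in a greenhouse. A water-diluted wettable powder was sprayed over the foliage at 100 l per 10 ares, giving 100 g active ingredient per 10 ares. Herbicidal effect was scored on day 14 after treatment.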
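Throughout, for Herbicidal effect index, Eo: 0-5 growth inhibition grade; 5 = over 90%; 4 = 70-90%; 3 = 50-70%; 2 = 30-50%; 1 = 10-30%; 0 = under 10%.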

SMILES | herbicidal effects, Ec (barnyard grass) (barnyard grass (Ec) [1]) | herbicidal effects, Mo (monochoria) (monochoria (Mo) [2]) | herbicidal effects, Eo (barnyard grass) (barnyard grass (Eo) [3]) | herbicidal effects, Se (green foxtail) (green foxtail (Se)) | Herbicidal effect index, Mo (monochoria (Mo) [2]) | Herbicidal effect index, Eo (barnyard grass (Eo) [3]) | Or (herbicidal effect index on crop) (rice (Or)) | Eo (herbicidal effect index) (barnyard grass (Eo) [4]) | Mo (herbicidal effect index) (monochoria (Mo) [5]) | Ec (herbicidal effects, index) (barnyard grass (Ec) [1]) | Ec (herbicidal effects, index) (barnyard grass (Ec) [6])
CSc1ncncc1C(C(C)C)N(C)C(=O)Cc1ccc(Cl)cc1 (racemic) [Compound 1-151] | 5 | 5 | 5 | 5 |  |  |  |  |  |  | 
Cc1ccc(NC(=O)N(C)C(c2cncnc2C(F)(F)Cl)C(C)C)cc1 (stereo not shown) [Compound 1-37, N-methyl-N-[2-methyl-1-(4-chlorodifluoromethylpyrimidin-5-yl)propyl]-N′-(4-methylphenyl)urea] | 5 |  |  | 5 | 5 | 5 |  |  |  |  | 
CC(C)C(c1cncnc1C(F)(F)F)N(C)C(=O)Oc1ccc(F)cc1 (racemic) [1-177] | 4 | 5 | 5 | 4 |  |  |  |  |  |  | 
CN(C(=O)Cc1ccc(Cl)cc1)C(c1ccccc1)c1cncnc1C(F)(F)F (racemic) [1-187] | 5 | 5 | 5 | 5 |  |  |  |  |  |  | 
CC(C)C(c1cncnc1C(F)F)N(C)C(=O)Cc1ccc(Cl)cc1 (racemic) [Compound 1-165] | 5 | 5 | 5 | 5 |  |  |  |  |  |  | 
COc1ccc(SC(=O)N(C)C(c2cncnc2C(F)(F)F)C(C)C)cc1 (racemic) [Compound 1-11] | 5 |  |  | 5 |  |  |  |  |  |  | 
CCCC(c1cncnc1C(F)(F)F)N(C)C(=O)Cc1ccc(Cl)cc1 (racemic) [Compound 1-114] | 5 |  |  | 5 | 5 | 5 |  |  |  |  | 
CN(C(=O)Cc1ccc(F)cc1)C(c1cncnc1C(F)(F)F)C1CC1 (racemic) [Compound 1-35] | 5 |  |  | 5 | 5 | 5 |  |  |  |  | 
Cc1ccc(CC(=O)N(C)C(c2cncnc2C2CC2)C(C)C)cc1 (racemic) [Compound 1-102] | 5 |  |  | 5 | 5 | 5 |  |  |  |  | 
COC(C(=O)N(C)C(c1cncnc1C(F)(F)F)C(C)C)c1ccc(Cl)cc1 (mixture of isomers) [Compound 1-155] | 4 | 5 | 5 | 4 |  |  |  |  |  |  | 
CC(C)C(c1cncnc1C1CC1)N(C)C(=O)Cc1ccc(F)cc1 (racemic) [Compound 1-101] | 5 |  |  | 5 | 5 | 5 |  |  |  |  | 
CCC(c1cncnc1C(F)(F)F)N(C)C(=O)Cc1ccccc1 (racemic) [Compound 1-32] | 5 |  |  | 5 | 5 | 5 |  |  |  |  | 
CC(C)C(c1cncnc1C(F)F)N(C)C(=O)Cc1ccccc1 (racemic) [Compound 1-163] | 5 | 5 | 5 | 5 |  |  |  |  |  |  | 
CN(C(=O)Cc1ccc(F)cc1)C(c1ccc(Cl)cc1)c1cncnc1C(F)(F)F (racemic) [1-222] | 5 | 5 | 5 | 5 |  |  |  |  |  |  | 
Cc1ncncc1C(N(C)C(=O)Cc1ccccc1)C(C)(C)C (racemic) [Compound 1-159] | 5 | 5 | 5 | 5 |  |  |  |  |  |  | 
CCN(C(=O)Cc1ccc(C(F)(F)F)cc1)C(c1cncnc1C(F)(F)F)C(C)C (racemic) [1-174] | 5 | 5 | 5 | 5 |  |  |  |  |  |  | 
Cc1ncncc1C(N(C)C(=O)Cc1ccc(F)cc1)C(C)(C)C (racemic) [Compound 1-160] | 5 | 5 | 5 | 5 |  |  |  |  |  |  | 
CC(Oc1ccccc1)C(=O)N(C)C(c1cncnc1C(F)(F)F)C(C)C (mixture of isomers) [Compound 1-115] | 5 |  |  | 5 | 5 | 5 |  |  |  |  | 
CN(C(=O)Cc1ccc(F)cc1)C(c1cncnc1C(F)(F)F)C1CCCC1 (racemic) [Compound 1-138] | 5 | 5 | 5 | 5 |  |  |  |  |  |  | 
CC(C)C(c1cncnc1C#N)N(C)C(=O)Cc1ccc(F)cc1 (racemic) [1-505] |  | 5 | 5 |  |  |  | 0 | 5 | 5 | 5 | 5
CCOC(OCC)C(c1cncnc1C(C)C)N(C)C(=O)Cc1ccccc1 (racemic) [1-454] |  | 5 | 5 |  |  |  | 1 | 5 | 5 | 4 | 4
COc1ncncc1C(C(C)C)N(C)C(=O)Cc1ccccc1 (racemic) [1-401] |  | 5 | 5 |  |  |  | 1 | 5 | 5 | 5 | 5
CN(C(=O)Cc1ccc(Cl)cc1)C(c1ccsc1)c1cncnc1C(F)(F)F (racemic) [1-442] |  | 5 | 5 |  |  |  | 1 | 5 | 5 | 5 | 4
CN(C(=O)Cc1ccc(F)cc1)C(c1cncnc1C1(C)CC1)C1(C)CC1 (racemic) [1-473] |  | 5 | 5 |  |  |  | 1 | 5 | 5 | 5 | 5
